Data on four compounds can be found in patent US4696928A, “Substituted dihydroimidazo[1,2-a]quinoxalines” (G. D. Searle & Co., priority 1985, dated 1987).

Structures are written as SMILES. In brackets after ≈: the same amount, converted by molar mass. Several values for one entry are separate records, joined by “and”; a condition that tells them apart may be missing. Identical values can stand only once. Like-named read-outs stand apart in the source and are kept apart here. A value given as a limit tells only on which side of the number the result lay.

Test [1] relates to Clostridium difficile Cytotoxic 1. The experiment in a line: MIC vs. panel of anaerobes. It counts as cell-based. The note with it: Clostridioides difficile.
Test [2] relates to Peptostreptococcus anaerobicus. The experiment in a line: MIC vs. panel of anaerobes. It counts as cell-based.
Another test relates to B. fragilis NCTC 9344. The experiment in a line: MIC/MBC broth microdilution, strain C. It counts as cell-based, Bacteroides fragilis. Conditions: for MBC: 99.9% reduction in viable count after 48 h; for MIC: 37° C., anaerobic.
Test [3] relates to Clostridium perfringens NCTC 523. The experiment in a line: microbe, parasite or virus in culture. The format is cell-based. Conditions: NCTC523.
Test [4] has as its system B. fragilis MZ-R ATCC 11295. The experiment in a line: MIC/MBC broth microdilution, strain D. The format is cell-based. The note with it: Bacteroides fragilis, ATCC11295, 48 h; for MBC: 99.9% reduction in viable count after 48 h. For orientation: Broth dilution looks for growth in wells or tubes with falling amounts of substance.
A further test relates to B. Fragilis ATCC 23745. Conditions: for ED (1 log reduction): Bacteroides fragilis, ATCC23745, in Mus musculus, po.
The next test has as its system B. fragilis NCTC 10581. The experiment in a line: MIC/MBC broth microdilution, strain A. It counts as cell-based. The note with it: Bacteroides fragilis, NCTC10581, 48 h; for MIC: 37° C., anaerobic; for MBC: 99.9% reduction in viable count after 48 h.
For test [5], the system named is Bacteroides melanogenicus NCTC 9336. The experiment in a line: MIC vs. panel of anaerobes. The note with it: NCTC9336. The format is cell-based.
The test system of test [6] is Fusobacterium necrophorum ATCC 11295. The experiment in a line: MIC vs. panel of anaerobes. It counts as cell-based. The note with it: ATCC11295; Fusobacterium necrophorum ATCC 11295; read-out: MIC.
The subject of test [7] is Propionebecterium acnes NCTC 737. The experiment in a line: MIC vs. panel of anaerobes. The format is cell-based.
Another test has as its system B. fragilis NCTC 9343. The experiment in a line: MIC/MBC broth microdilution, strain B. The format is cell-based. The note with it: Bacteroides fragilis, NCTC9343, 48 h; for MIC: 37° C., anaerobic; for MBC: 99.9% reduction in viable count after 48 h.
Test [8] relates to Propionebacterium acnes NCTC 7337. The experiment in a line: MIC vs. panel of anaerobes. The format is cell-based.
Another test relates to B. fragilis WS-1. The experiment in a line: MIC/MBC broth microdilution, strain E. It counts as cell-based, Bacteroides fragilis. The note with it: for MIC: 37° C., anaerobic; for MBC: 99.9% reduction in viable count after 48 h.
Test [9] relates to Campylobacter fetus ss.jejuni ATCC 29428. The experiment in a line: MIC vs. panel of anaerobes. It counts as cell-based. The note with it: ATCC29428.
Test [10] has as its system Clostridium perfringens NCTC 8237. The experiment in a line: microbe, parasite or virus in culture. It counts as cell-based. Conditions: NCTC8237.
For test [11], the system named is Clostridium difficile NCIB 10666. The experiment in a line: MIC vs. panel of anaerobes. The format is cell-based. Conditions: Clostridioides difficile, NCIB10666; Clostridium difficile NCIB 10666; read-out: MIC.
Setting [12] is: Peptostreptococcus anaerobicus, read-out: MIC.
Setting [13] is: Bacteroides fragilis, NCTC9344, 48 h, read-out: MIC.
[14] abbreviates: Bacteroides fragilis, NCTC9344, 48 h, read-out: MBC.
Setting [15] is: Bacteroides fragilis, NCTC9344, 48 h, 48 h.
Where [16] appears, read: Bacteroides melanogenicus NCTC 9336, read-out: MIC.
[17] abbreviates: Bacteroides fragilis, WS1, 48 h, 48 h.
The mark [18] stands for this setting: 48 h, read-out: Dose giving 1 log reduction, p.o., after infection and twice daily for 2 days, 1 log (90%) reduction of CFU/ml liver homogenate vs untreated, compound of Example.
The mark [19] stands for this setting: Bacteroides fragilis, WS1, 48 h.

By MBC is commonly meant the lowest tested concentration that kills the bacteria rather than only halting them. Turning to `Cc1ncc([N+](=O)[O-])n1CCO` [Metronidazole, reference compound], the MIC is < 0.8 µg/mL in test [1]; > 100 µg/mL in test [2] (setting [12]); 0.8 µg/mL (≈ 4.67 µM) in the test with B. fragilis NCTC 9344 (48 h); 0.6 µg/mL (≈ 3.51 µM) with B. fragilis NCTC 9344 (setting [13]); < 0.8 µg/mL in the test on B. fragilis NCTC 9344 (setting [15]); < 0.8 µg/mL in test [3]. In addition, the MIC in test [4] was 3.1 µg/mL (≈ 18.1 µM); with B. fragilis NCTC 10581 (read-out: MIC), 0.6 µg/mL (≈ 3.51 µM); in the test with B. fragilis NCTC 10581 (48 h) it was < 0.8 µg/mL; in test [5] (setting [16]), > 100 µg/mL; in test [6], 6.2 µg/mL (≈ 36.2 µM); in test [7], > 100 µg/mL. In addition, the MIC is 0.6 µg/mL (≈ 3.51 µM) in the test with B. fragilis NCTC 9343 (read-out: MIC); 0.8 µg/mL (≈ 4.67 µM) with B. fragilis NCTC 9343 (48 h); > 100 µg/mL in test [8]; < 0.8 µg/mL and 0.8 µg/mL with B. fragilis WS-1 (48 h); 1.5 µg/mL (≈ 8.76 µM) in the test with B. fragilis WS-1 (setting [17]); > 100 µg/mL in test [9]. For the same compound, the MIC in [10] was found to be 1.5 µg/mL (≈ 8.76 µM). Also, the MBC is 0.8 µg/mL and < 0.8 µg/mL in the test with B. fragilis NCTC 9344; 0.6 µg/mL (≈ 3.51 µM) with B. fragilis NCTC 9344 (setting [14]); 0.8 µg/mL (≈ 4.67 µM) in the test on B. fragilis NCTC 10581. The “reduction in B. fragilis” value with B. Fragilis ATCC 23745 (40 mg/kg (p.o.)) is given as 3-3.5 log10. In addition, the ED (1 log reduction) with B. Fragilis ATCC 23745 (read-out: Dose giving 1 log reduction, Metronidazole, p.o., positive control beside the compound of the same line) was 1.64 mg/kg.

Regarding `[O-][N+]1=C(c2ccccc2)C2=NCCN2c2nc(N3CCN(Cc4ccccc4)CC3)ccc21` [Example 17, 1,2-Dihydro-4-phenyl-8-(4-phenylmethylpiperazinyl)imidazo[1,2-a]pyrido[3,2-e]pyrazine 5-oxide], the ED (1 log reduction) in the test on B. Fragilis ATCC 23745 (setting [18]) came to 3.59 mg/kg.

On to `CN1CCN(c2ccc3c(c2)N2CCN=C2C(c2ccccc2)=[N+]3[O-])CC1` [Example 4, 1,2-Dihydro-8-(4-methylpiperazinyl)-4-phenylimidazo[1,2-a]-quinoxaline 5-oxide], for which the MIC in test [1] stood at 6.2 µg/mL (≈ 17.2 µM); in test [2] (Peptostreptococcus), 12.5 µg/mL (≈ 34.6 µM); in the test on B. fragilis NCTC 9344 (setting [15]), 3.1 µg/mL (≈ 8.58 µM); in test [3], 6.2 µg/mL (≈ 17.2 µM); in [4] (strain D (MZ-R), 48 h, 37° C., anaerobic, read-out: MIC), 1.5 µg/mL (≈ 4.15 µM); against B. fragilis NCTC 10581 (48 h), 3.1 µg/mL (≈ 8.58 µM). The MIC in test [5] (Bacteroides) worked out at 12.5 µg/mL (≈ 34.6 µM); in test [11], 1.5 µg/mL (≈ 4.15 µM); in test [6] it was 6.2 µg/mL (≈ 17.2 µM); in [7], 25 µg/mL (≈ 69.2 µM); with B. fragilis NCTC 9343 (48 h) it was 3.1 µg/mL (≈ 8.58 µM); in [8], 25 µg/mL (≈ 69.2 µM). Further, the MIC is 6.2 µg/mL (≈ 17.2 µM) in the test with B. fragilis WS-1 (Bacteroides fragilis, WS1, 48 h, read-out: MIC); 25 µg/mL (≈ 69.2 µM) in test [9]; 12.5 µg/mL (≈ 34.6 µM) in test [10]. The MBC in the test with B. fragilis NCTC 9344 (setting [14]) was found to be 3.1 µg/mL (≈ 8.58 µM); in test [4] (strain D (MZ-R)), 1.5 µg/mL (≈ 4.15 µM); in the test with B. fragilis NCTC 10581, 3.1 µg/mL (≈ 8.58 µM); against B. fragilis NCTC 9343 it was 3.1 µg/mL (≈ 8.58 µM); against B. fragilis WS-1 (setting [19]), 6.2 µg/mL (≈ 17.2 µM). Further, the ED (1 log reduction) with B. Fragilis ATCC 23745 (setting [18]) worked out at 7.73 mg/kg.

Turning to `[O-][N+]1=C(c2ccccc2)C2=NCCN2c2cc(F)ccc21` [Example 1, 1,2-Dihydro-8-fluoro-4-phenylimidazo[1,2-a]quinoxaline 5-oxide], the MIC is < 0.8 µg/mL in test [1]; 25 µg/mL (≈ 88.9 µM) in [2] (setting [12]); 1.5 µg/mL (≈ 5.33 µM) with B. fragilis NCTC 9344 (setting [13]); 3.1 µg/mL (≈ 11 µM) in test [3]; 0.8 µg/mL (≈ 2.84 µM) in test [4]; 3.1 µg/mL (≈ 11 µM) with B. fragilis NCTC 10581 (48 h). Besides, the MIC in test [5] (setting [16]) is 25 µg/mL (≈ 88.9 µM); in [11], < 0.8 µg/mL; in test [6], < 0.8 µg/mL; in test [7], 50 µg/mL (≈ 178 µM); with B. fragilis NCTC 9343 (48 h), 3.1 µg/mL (≈ 11 µM); in test [8], 50 µg/mL (≈ 178 µM). Moreover, the MIC turned out to be 3.1 µg/mL (≈ 11 µM) against B. fragilis WS-1 (setting [17]), 2.5 µg/mL (≈ 8.89 µM) in [9] and 3.1 µg/mL (≈ 11 µM) in test [10]. For the same compound, the MBC in the test with B. fragilis NCTC 9344 (setting [14]) stood at 1.5 µg/mL (≈ 5.33 µM); in [4] (strain D (MZ-R)), 1.5 µg/mL (≈ 5.33 µM); in the test on B. fragilis NCTC 10581 it was 3.1 µg/mL (≈ 11 µM); against B. fragilis NCTC 9343, 3.1 µg/mL (≈ 11 µM); in the test with B. fragilis WS-1 (setting [19]), 3.1 µg/mL (≈ 11 µM). The ED (1 log reduction) with B. Fragilis ATCC 23745 (setting [18]) is 7.57 mg/kg.
